This is an account of results in PMC9868654, “Discovery of a potent olaparib–chlorambucil hybrid inhibitor of PARP1 for the treatment of cancer” (Frontiers in Pharmacology, 2023).

Structures are written as SMILES. Where only a bound is given, the exact number is not on record here.

One assay has as its target PARP1 (Homo sapiens, UniProt P09874). The experiment in a line: PARP1 enzyme inhibitory assay. The settings on record: Table 2, B and C series; mean of three experiments. The format is biochemical.
The next assay has as its system 8226 cells. The experiment in a line: In vitro antiproliferative assay (CCK-8). It is filed as cell-based. The settings on record: 8226, without BRCA mutations; CCK-8, 72 h; mean of three. As to the method: (§1) The proliferation of cancer cells was tested by CCK-8 assay. Briefly, cells were seeded in 96-well plates at approximately 5 × 10^3 cells per well. The cells were treated with test compounds after 24 h of incubation. CCK-8 reagent ([…]) was added to each well after 72 h of incubation, and the cells were then incubated at 37°C for 4 h. The light absorbance at 450 nm was measured using an Opsys microplate reader (Dynex Technologies, Chantilly, VA, United States). Results are illustrated as percentage viability normalized to DMSO-treated control cells.

In a further assay the test system is A549 cells. Briefly: In vitro antiproliferative assay (CCK-8). The format is cell-based. The settings on record: Homo sapiens; A549, without BRCA mutations; CCK-8, 72 h; mean of three. As to the method: as §1
Another assay relates to B16 cells. Briefly: In vitro antiproliferative assay (CCK-8). The format is cell-based. The settings on record: Mus musculus; B16, without BRCA mutations; CCK-8, 72 h; mean of three. On the procedure:
as §1

In a further assay the test system is CH151 cells. Briefly: In vitro antiproliferative assay (CCK-8). It is filed as cell-based. The settings on record: CH151, without BRCA mutations; CCK-8, 72 h; mean of three. As to the method:
as §1

A further assay relates to Capan-1 cells. The experiment in a line: In vitro antiproliferative assay (CCK-8). The settings on record: Homo sapiens; Capan-1, BRCA-mutated; CCK-8, 72 h; mean of three. The format is cell-based. As to the method: as §1
In another assay the test system is HCC1937 cells. Briefly: In vitro antiproliferative assay (CCK-8). It is filed as cell-based. The settings on record: Homo sapiens; HCC1937, BRCA-mutated; CCK-8, 72 h; mean of three. As to the method: as §1
Another assay concerns Hela cells. The experiment in a line: In vitro antiproliferative assay (CCK-8). The format is cell-based. The settings on record: Homo sapiens, without BRCA mutations, CCK-8, 72 h, mean of three. On the procedure:
as §1

For assay [1], the system named is K562 cells. Briefly: In vitro antiproliferative assay (CCK-8). The format is cell-based. The settings on record: Homo sapiens; K562, without BRCA mutations; CCK-8, 72 h; mean of three. On the procedure: as §1
In another assay the test system is MCF-7 cells. The experiment in a line: In vitro antiproliferative assay (CCK-8). The settings on record: Homo sapiens, MCF7; MCF-7, without BRCA mutations; CCK-8, 72 h; mean of three. It is filed as cell-based. As to the method:
as §1

The subject of the next assay is MDA-MB-231 cells. The experiment in a line: In vitro antiproliferative assay (CCK-8). It is filed as cell-based. The settings on record: Homo sapiens; MDA-MB-231, without BRCA mutations; CCK-8, 72 h; mean of three. On the procedure:
as §1

The next assay concerns MDA-MB-436 cells. Briefly: In vitro antiproliferative assay (CCK-8). It is filed as cell-based. The settings on record: Homo sapiens; MDA-MB-436, BRCA-mutated; CCK-8, 72 h; mean of three. On the procedure:
as §1

For the next assay, the system named is Raji cells. Briefly: In vitro antiproliferative assay (CCK-8). The format is cell-based. The settings on record: Homo sapiens, without BRCA mutations, CCK-8, 72 h, mean of three. As to the method: as §1
The test system of the next assay is SKOV3 cells. The experiment in a line: In vitro antiproliferative assay (CCK-8). The format is cell-based. The settings on record: Homo sapiens, SK-OV-3; SKOV3, without BRCA mutations; CCK-8, 72 h; mean of three. On the procedure:
as §1

The subject of another assay is SW620 cells. Briefly: In vitro antiproliferative assay (CCK-8). The format is cell-based. The settings on record: Homo sapiens, SW-620; SW620, without BRCA mutations; CCK-8, 72 h; mean of three. As to the method:
as §1

For the next assay, the system named is U251 cells. Briefly: In vitro antiproliferative assay (CCK-8). The settings on record: Homo sapiens, U-251; U251, without BRCA mutations; CCK-8, 72 h; mean of three. It is filed as cell-based. As to the method: as §1
For the next assay, the system named is U87 cells. The experiment in a line: In vitro antiproliferative assay (CCK-8). The settings on record: Homo sapiens, U-87 MG; U87, without BRCA mutations; CCK-8, 72 h; mean of three. It is filed as cell-based. As to the method: as §1
Assay [2] has as its system K562 cells. Briefly: Cell cycle analysis (PI staining, flow cytometry). It is filed as cell-based. The settings on record: for effect on cell cycle (in words): K562, 24 h, C2 1.25–5.0 µM, olaparib and chlorambucil 2.5–10 µM. On the procedure: K562 and HCC1937 cells were incubated with different doses of molecule C2, olaparib, or chlorambucil for 24 h. After treatment, cells were collected and fixed with 70% pre-chilled ethanol in PBS and stored at −20°C overnight. The cells were then washed twice with PBS, incubated with 100 μg/ml RNase I (Solarbio, China) at 37°C for 1 h, and stained with propidium iodide (PI, 10 μg/ml, Solarbio, China) for 30 min, in the dark, at room temperature. Finally, the DNA content was measured using flow cytometry (FACSAria III, Becton Dickinson, United States). The data were analyzed and fitted using ModFit software.
On the technique in general: A flow cytometer gives signals particle by particle.

Assay [3] deals with K562 cells. Briefly: Cell apoptosis analysis (Annexin V-BV421/7-AAD, flow cytometry). It is filed as cell-based. The settings on record: 24 h, control .90%. On the procedure:
K562 cells were treated with various concentrations of molecule C2, olaparib, or chlorambucil for 24 h. Cells were then harvested and washed twice with PBS and then resuspended with binding buffer (Becton Dickinson, United States). Cells were incubated with Annexin V-BV421 (Becton Dickinson, United States) and 7-AAD (Becton Dickinson, United States) for double labeling for 30 min, in the dark, at room temperature, followed by analysis using flow cytometry (FACSAria III, Becton Dickinson, United States). The data were analyzed using FlowJo v10 software.

PARP1, sequence (P09874 whole entry): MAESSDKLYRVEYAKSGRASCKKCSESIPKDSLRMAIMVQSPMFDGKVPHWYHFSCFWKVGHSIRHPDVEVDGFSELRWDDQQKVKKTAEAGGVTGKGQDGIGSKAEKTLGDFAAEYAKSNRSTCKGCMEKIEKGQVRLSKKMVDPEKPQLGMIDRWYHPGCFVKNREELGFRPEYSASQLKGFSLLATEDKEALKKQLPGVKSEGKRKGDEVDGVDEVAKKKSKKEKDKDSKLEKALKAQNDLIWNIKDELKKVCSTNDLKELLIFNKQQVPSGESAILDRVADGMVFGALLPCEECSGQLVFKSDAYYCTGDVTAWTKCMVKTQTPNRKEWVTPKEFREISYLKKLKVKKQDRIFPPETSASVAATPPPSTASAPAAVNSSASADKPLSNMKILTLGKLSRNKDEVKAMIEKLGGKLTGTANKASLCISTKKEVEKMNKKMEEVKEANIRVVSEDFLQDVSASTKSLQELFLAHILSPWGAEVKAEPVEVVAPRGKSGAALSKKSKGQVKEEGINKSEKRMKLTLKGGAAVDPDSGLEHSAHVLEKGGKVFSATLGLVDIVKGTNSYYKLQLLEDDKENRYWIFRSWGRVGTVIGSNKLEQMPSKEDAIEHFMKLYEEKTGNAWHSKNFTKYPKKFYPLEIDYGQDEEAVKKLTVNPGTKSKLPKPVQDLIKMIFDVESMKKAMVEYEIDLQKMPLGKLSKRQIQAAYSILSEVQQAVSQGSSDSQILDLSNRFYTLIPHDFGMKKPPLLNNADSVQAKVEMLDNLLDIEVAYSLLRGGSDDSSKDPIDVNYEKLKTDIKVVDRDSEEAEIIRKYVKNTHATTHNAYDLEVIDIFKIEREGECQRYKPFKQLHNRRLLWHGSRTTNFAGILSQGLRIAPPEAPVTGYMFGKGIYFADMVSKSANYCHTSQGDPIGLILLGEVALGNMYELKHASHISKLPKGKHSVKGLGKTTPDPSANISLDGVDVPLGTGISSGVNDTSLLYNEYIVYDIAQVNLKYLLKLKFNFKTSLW

Usually IC50 stands for the concentration that gives 50% inhibition. Lower therefore signals greater potency in that assay. On to `O=C(c1ccc(N(CCCl)CCCl)cc1)N1CCN(C(=O)c2cc(Cc3n[nH]c(=O)c4ccccc34)ccc2F)CC1` [C1, 4-(3-(4-(4-(Bis(2-chloroethyl)amino)benzoyl)piperazine-1-carbonyl)-4-fluorobenzyl) phthalazin-1(2H)-one], for which the IC50 is 0.0012 ± 0.00011 µM against PARP1; more than 100 µM with 8226 cells; 14.1 ± 1.1 µM in the assay with A549 cells; more than 100 µM in the assay on B16 cells; more than 100 µM in the assay with CH151 cells; 0.105 ± 0.01 µM in the assay on Capan-1 cells. Besides, the IC50 in the assay with HCC1937 cells was 0.36 ± 0.02 µM; in the assay with Hela cells, more than 100 µM; in the assay with K562 cells [1], more than 20 µM; in the assay with MCF-7 cells it was more than 100 µM; in the assay with MDA-MB-231 cells, more than 100 µM; with MDA-MB-436 cells, 0.018 ± 0.002 µM. For the same molecule, the IC50 in the assay on Raji cells, in the assay with SKOV3 cells, in the assay with SW620 cells, in the assay on U251 cells and in the assay with U87 cells was more than 100 µM throughout.
In the case of `O=C(CCCc1ccc(N(CCCl)CCCl)cc1)N1CCN(C(=O)c2cc(Cc3n[nH]c(=O)c4ccccc34)ccc2F)CC1` [C2, 4-(3-(4-(4-(4-(Bis(2-chloroethyl)amino)phenyl)butanoyl)piperazine-1-carbonyl)-4-fluorobenzyl)phthalazin-1(2H)-one], the IC50 on PARP1 was found to be 0.0009 ± 8e-05 µM; in the assay with 8226 cells it was 3.62 ± 0.2 µM; in the assay on A549 cells it was 2.01 ± 0.13 µM; in the assay on B16 cells, 11.7 ± 1.01 µM; with CH151 cells, 2.77 ± 0.13 µM; in the assay on Capan-1 cells, 0.086 ± 0.006 µM. The IC50 was determined as 0.18 ± 0.01 µM in the assay with HCC1937 cells; 1.65 ± 0.11 µM with Hela cells; 1.12 ± 0.08 µM with K562 cells [1]; 2.28 ± 0.11 µM in the assay with MCF-7 cells; 6.33 ± 0.35 µM in the assay on MDA-MB-231 cells; 0.013 ± 0.001 µM in the assay on MDA-MB-436 cells. The IC50 in the assay with Raji cells came to 1.21 ± 0.02 µM; in the assay on SKOV3 cells it was 4.04 ± 0.25 µM; with SW620 cells, 6.41 ± 0.46 µM; with U251 cells, 2.58 ± 0.14 µM; in the assay with U87 cells, 2.86 ± 0.01 µM. Moreover, in the assay with K562 cells [2], the “effect on cell cycle (in words)” value is reported as “increased cell number at the G2/M phase in a dose-dependent manner”. The “percentage of apoptotic cells (apoptotic rate)” value in the assay on K562 cells [3] (K562, 1 μM) came to 10.96%; in the assay with K562 cells [3] (K562, 2 µM) it was 12.69%.
As to `O=C(O)CCCc1ccc(N(CCCl)CCCl)cc1` [Chlorambucil], the IC50 was more than 100 µM with 8226 cells; 89.4 ± 3.4 µM with A549 cells; more than 100 µM in the assay on B16 cells; more than 100 µM in the assay with CH151 cells; more than 1 µM in the assay on Capan-1 cells; more than 1 µM in the assay with HCC1937 cells. Further, the IC50 in the assay with Hela cells is more than 100 µM; with K562 cells [1], more than 20 µM; in the assay on MCF-7 cells, 19.5 ± 1.7 µM; in the assay on MDA-MB-231 cells, 95.3 ± 5.7 µM; in the assay on MDA-MB-436 cells it was more than 1 µM; with Raji cells, 40.6 ± 3.6 µM. The IC50 in the assay on SKOV3 cells is 3.98 ± 0.22 µM; in the assay on SW620 cells it was 10 ± 1.01 µM; with U251 cells it was 21.1 ± 1.8 µM; in the assay with U87 cells it was more than 100 µM. Further, the “proportion of cells in the G2/M phase” value with K562 cells [2] (K562, 10 µM, 24 h) was 61.60%. Moreover, the “effect on cell cycle (in words)” value with K562 cells [2] is on record as “increased cell number at the G2/M phase in a dose-dependent manner”. Further, the “percentage of apoptotic cells (apoptotic rate)” value is reported as 2.49% in the assay with K562 cells [3] (K562, 5 μM) and 2.96% in the assay on K562 cells [3] (K562, 10 µM).
